Measurements published in US4988681A, “Phosphinic acid derivatives” (Banyu Pharmaceutical Co., Ltd., priority 1988, dated 1991).
Read-outs that look alike come from different tables or passages of the source.

Key:
[1] = molecular target: T1, porcine kidney dehydropeptidase I (Sus scrofa, UniProt P22412); experiment: Inhibitory activity on porcine kidney dehydropeptidase I (DHP-I); type: biochemical
T1 construct: Frozen porcine kidney cortex was homogenized; from tissue; host or cells: porcine kidney cortex
T1 sequence (P22412 17-409): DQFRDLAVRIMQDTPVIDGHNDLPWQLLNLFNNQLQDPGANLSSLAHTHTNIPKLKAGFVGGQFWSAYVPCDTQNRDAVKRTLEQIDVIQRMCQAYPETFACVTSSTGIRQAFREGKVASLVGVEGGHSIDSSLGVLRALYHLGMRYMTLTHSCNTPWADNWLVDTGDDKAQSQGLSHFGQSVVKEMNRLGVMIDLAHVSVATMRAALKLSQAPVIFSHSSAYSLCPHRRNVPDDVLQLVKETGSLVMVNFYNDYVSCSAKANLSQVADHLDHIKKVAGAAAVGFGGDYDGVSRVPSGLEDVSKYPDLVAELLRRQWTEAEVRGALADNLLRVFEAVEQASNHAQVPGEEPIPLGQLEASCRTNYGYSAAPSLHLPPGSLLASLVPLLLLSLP
Protocol: (1) Inhibitory activity on porcine kidney dehydropeptidase I
(i) Purification of porcine dehydropeptidase I
Frozen porcine kidney cortex was homogenized. Butanol (1/4 volume) pre-cooled in a dry ice-acetone bath was added to the homogenate, and the mixture was stirred at 4° C. for 43 hours. The mixture was then dialyzed for one day and centrifuged at 3,000 g for 30 minutes. To the resulting supernatant was added ammonium sulfate. A precipitate at the salt concentration range between 50 and 75% was collected to give a crude enzyme preparation which was re-dissolved in a 50 mM MOPS buffer containing 0.5 M NaCl. The solution was charged on a cilastatin affinity column. Elution with a 50 mM MOPS buffer containing 0.5 M NaCN gave a purified enzyme preparation.
(ii) Measurement of inhibitory activity
The resulting enzyme preparation (3 mU) and an inhibitor were pre-incubatedat 37° C. for 3 hours in 2.7 ml of a 50 mM MOPS buffer (pH 7.4), and then 2.475 ml of the mixture was transferred into a cuvette. As a substrate, 25 microliters of a 5 mM glycyldehydrophenylalanine solution in a 50 mM MOPS buffer (pH 7.4) was added to start an enzymic reaction. The reaction was carried out at 37° C. in a spectrophotometer fitted with a constant-emperature device, and a decrease of the absorbance at 275 nm during a period of 5 minutes was measured. […] An IC50 value was calculated from the percent inhibition data.
One unit (U) is defined as the amount of the enzyme which hydrolyzes 1 micromole of the substrate (glycyldehydrophenylalanine) per minute at a substrate concentration of 0.05 mM at 37° C. in a 50 mM MOPS buffer (pH 7.4).

[2] = Pharmacokinetic evaluation: plasma concentration in rats; type: in vivo, Male SD rats; conditions: plasma, rat; for AUC: trapezoidal rule; for concentration at 0.5 h: 1/2 h; for concentration at 0.25 h: 1/4 h; for concentration at 5 min: 1/12 h
Protocol: (4) Pharmacokinetic evaluations
Male SD rats ([…]) were divided into groups each consisting of three animals. […] Furthermore, cilastatin was intravenously administered to a 14th group as a control group.
Plasma samples were taken periodically from the carotid artery through a cannula inserted into it at the points of 1/12, 1/4, 1/2, 1, 2, 4, 6, 8 and 24 hours after the administration.
The area under the curve (AUC) of the plasma concentration was determined according to the trapezoidal rule.

[3] = substrate glycyldehydrophenylalanine, pH 7.4, 37° C., 3 h pre-incubation, read-out: Concentration producing 50% inhibition (IC50)
[4] = iv 10 mg/kg (cilastatin dose not given)
[5] = iv 10 mg/kg (cilastatin dose not given), N.D.: below the detection limit
[6] = iv 10 mg/kg, N.D.: below the detection limit

## CCCCP(=O)(O)C/C(=C\C1CCCCC1)C(=O)O [Compound No. 1, (Z)-2-(butylhydroxyphosphinoyl)methyl-3-cyclohexylpropenoic acid]
[1]; [3]
  IC50: 38 nM

## CC1(C)CC1P(=O)(O)C/C(=C\C1CCCCC1)C(=O)O (stereo not drawn) [Compound No. 5, (Z)-3-cyclohexyl-2-(2,2-dimethylcyclopropylhydroxyphosphinoyl)methylpropenoic acid]
[1]; [3]
  IC50: 8.2 nM
[2]; [4]
  AUC: 88200 ng·h/mL
  concentration at 0.5 h: 36200 ng/mL
  concentration at 0.25 h: 49400 ng/mL
  concentration at 5 min: 51900 ng/mL
[2]; po 10 mg/kg
  AUC: 22500 ng·h/mL
  concentration at 0.5 h: 6400 ng/mL
  concentration at 0.25 h: 4700 ng/mL
  concentration at 5 min: 2500 ng/mL
  concentration at 1 h: 5300 ng/mL
  concentration at 2 h: 3400 ng/mL
  concentration at 4 h: 2400 ng/mL
  concentration at 6 h: 1100 ng/mL
[2]; [5]
  concentration at 1 h: 24400 ng/mL
[2]; iv 10 mg/kg
  concentration at 2 h: 11900 ng/mL
  concentration at 4 h: 4700 ng/mL
  concentration at 8 h: 900 ng/mL
[2]; [6]
  concentration at 6 h: 1700 ng/mL
[2]; iv 10 mg/kg, 24 h, N.D.: below the detection limit
  concentration at 24 h: 100 ng/mL
[2]; po 10 mg/kg, N.D.: below the detection limit
  concentration at 8 h: 300 ng/mL

## CC(C)CP(=O)(O)C/C(=C\C1CC1)C(=O)O [Compound No. 10, (Z)-3-cyclopropyl-2-(hydroxyisobutylphosphinoyl)methylpropenoic acid]
[1]; [3]
  IC50: 14 nM
[2]; [4]
  AUC: 40600 ng·h/mL
  concentration at 0.5 h: 21700 ng/mL
  concentration at 0.25 h: 26500 ng/mL
  concentration at 5 min: 40800 ng/mL
[2]; po 10 mg/kg
  AUC: 3900 ng·h/mL
  concentration at 0.5 h: 1400 ng/mL
  concentration at 0.25 h: 1100 ng/mL
  concentration at 5 min: 500 ng/mL
  concentration at 1 h: 1200 ng/mL
  concentration at 2 h: 800 ng/mL
  concentration at 4 h: 300 ng/mL
  concentration at 6 h: 200 ng/mL
[2]; [5]
  concentration at 1 h: 12800 ng/mL
[2]; iv 10 mg/kg
  concentration at 2 h: 5200 ng/mL
  concentration at 4 h: 1100 ng/mL
  concentration at 8 h: 200 ng/mL
[2]; [6]
  concentration at 6 h: 200 ng/mL

## CC(C)CP(=O)(O)C/C(=C\CCCC(=O)O)C(=O)O [Compound No. 14, (Z)-2-(hydroxyisobutylphosphinoyl)methyl-2-heptenedioic acid]
[1]; [3]
  IC50: 11 nM
[2]; [4]
  AUC: 9300 ng·h/mL
  concentration at 0.5 h: 4600 ng/mL
  concentration at 0.25 h: 11300 ng/mL
  concentration at 5 min: 28000 ng/mL
[2]; [5]
  concentration at 1 h: 1400 ng/mL
[2]; iv 10 mg/kg
  concentration at 2 h: 300 ng/mL
  concentration at 4 h: 100 ng/mL

## CC(C)P(=O)(O)C/C(=C\C1CCCCC1)C(=O)O [compound 3, (Z)-3-cyclohexyl-2-(hydroxyisopropylphosphinoyl)methylpropenoic acid]
[1]; [3]
  IC50: 42 nM

## CCCCCCCCCCP(=O)(O)C/C(=C\C1CCCCC1)C(=O)O [compound 4, (Z)-3-cyclohexyl-2-(decylhydroxyphosphinoyl)methylpropenoic acid]
[1]; [3]
  IC50: 68 nM

## CCCCC/C=C(\CP(=O)(O)CC(C)C)C(=O)O [compound 6, (Z)-2-(hydroxyisobutylphosphinoyl)methyl-2-octenoic acid]
[1]; [3]
  IC50: 46 nM

## CCCCCCCCC/C=C(\CP(=O)(O)CC(C)C)C(=O)O [compound 7, (Z)-2-(hydroxyisobutylphosphinoyl)methyl-2-dodecenoic acid]
[1]; [3]
  IC50: 27 nM

## CC(C)/C=C(\CP(=O)(O)CC(C)C)C(=O)O [compound 8, (Z)-2-(hydroxyisobutylphosphinoyl)methyl-4-methyl-2-pentenoic acid]
[1]; [3]
  IC50: 16 nM

## CC(C)C/C=C(\CP(=O)(O)CC(C)C)C(=O)O [compound 9, (Z)-2-(hydroxyisobutylphosphinoyl)methyl-5-methyl-2-hexenoic acid]
[1]; [3]
  IC50: 15 nM

## CC(C)CP(=O)(O)C/C(=C\CCc1ccccc1)C(=O)O [compound 11, (Z)-2-(hydroxyisobutylphosphinoyl)methyl-5-phenyl-2-pentenoic acid]
[1]; [3]
  IC50: 57 nM

## CC(C)CP(=O)(O)C/C(=C\CCCCl)C(=O)O [compound 12, (Z)-6-chloro-2-(hydroxyisobutylphosphinoyl)methyl-2-hexenoic acid]
[1]; [3]
  IC50: 51 nM

## CC(C)CP(=O)(O)C/C(=C\CCCCCCl)C(=O)O [compound 13, (Z)-8-chloro-2-(hydroxyisobutylphosphinoyl)methyl-2-octenoic acid]
[1]; [3]
  IC50: 44 nM

## CC1(C)CC1P(=O)(O)C/C(=C\C1CC1)C(=O)O (stereo not drawn) [compound 15, (Z)-3-cyclopropyl-2-(2,2-dimethylcyclopropylhydroxyphosphinoyl)methylpropenoic acid]
[1]; [3]
  IC50: 6.3 nM

## O=C(O)/C(=C/C1CC1)CP(=O)(O)CC1CCCCC1 [compound 16, (Z)-2-(cyclohexylmethylhydroxyphosphinoyl)methyl-3-cyclopropylpropenoic acid]
[1]; [3]
  IC50: 41 nM

## CC(C)CP(=O)(O)C/C(=C\CCCSc1ccccc1)C(=O)O [compound 18, (Z)-2-(hydroxyisobutylphosphinoyl)methyl-6-phenylthio-2-hexenoic acid]
[1]; [3]
  IC50: 21 nM

## CC(C)CP(=O)(O)C/C(=C\CCCSc1c[nH]nn1)C(=O)O [compound 19, (Z)-2-(hydroxyisobutylphosphinoyl)methyl-6-(1,2,3-triazol-4-yl)thio-2-hexenoic acid]
[1]; [3]
  IC50: 25 nM

## CC(C)CP(=O)(O)C/C(=C\CCCCCSCC(=O)O)C(=O)O [compound 20, (Z)-8-carboxymethylthio-2-(hydroxyisobutylphosphinoyl)methyl-2-octenoic acid]
[1]; [3]
  IC50: 22 nM

## COC(=O)CSCCCCC/C=C(\CP(=O)(O)CC(C)C)C(=O)O [compound 21, (Z)-2-(hydroxyisobutylphosphinoyl)methyl-8-methoxycarbonylmethylthio-2-octenoic acid]
[1]; [3]
  IC50: 31 nM

## CC(C)CP(=O)(O)C/C(=C\CCCSc1ncccc1O)C(=O)O [compound 22, (Z)-6-(3-hydroxy-2-pyridyl)thio-2-(hydroxyisobutylphosphinoyl)methyl-2-hexenoic acid]
[1]; [3]
  IC50: 23 nM

## CC(C)CP(=O)(O)C/C(=C\CCCSc1nccn1C)C(=O)O [compound 24, (Z)-2-(hydroxyisobutylphosphinoyl)methyl-6-(1-methylimidazol-2-yl)thio-2-hexenoic acid]
[1]; [3]
  IC50: 48 nM

## CC(C)CP(=O)(O)C/C(=C\CCCCCSc1ncccc1O)C(=O)O [compound 25, (Z)-8-(3-hydroxy-2-pyridyl)thio-2-(hydroxyisobutylphosphinoyl)methyl-2-octenoic acid]
[1]; [3]
  IC50: 19 nM

## CCCCP(=O)(O)CC(CC1CCCCC1)C(=O)O (stereo not drawn) [compound 26, 2-(butylhydroxyphosphinoyl)methyl-3-cyclohexylpropionic acid]
[1]; [3]
  IC50: 28 nM

## CC(C)CP(=O)(O)C/C(=C\c1ccccc1)C(=O)O [compound 29, (Z)-2-(hydroxyisobutylphosphinoyl)methyl-3-phenylpropenoic acid]
[1]; [3]
  IC50: 60 nM

## C/C=C(\CP(=O)(O)CC(C)C)C(=O)O [compound 30, (Z)-2-(hydroxyisobutylphosphinoyl)methyl-2-butenoic acid]
[1]
  IC50: 75 nM

## CC(C)CP(=O)(O)C/C(=C\CCCSCCO)C(=O)O [compound 31, (Z)-6-(2-hydroxyethyl)thio-2-(hydroxyisobutylphosphinoyl)methyl-2-hexenoic acid]
[1]; [3]
  IC50: 64 nM
